Reference: paper PMC7377239, “Cardiovascular Effects of Polychlorinated Biphenyls and Their Major Metabolites” (Environmental Health Perspectives, 2020)
Counter-ions that a name gives are not always drawn. Like-named read-outs stand apart in the source and are kept apart here.

Test system: iCell cardiomyocytes (human iPSC-derived cardiomyocytes)
Test: High-content imaging of cytotoxicity and mitochondrial integrity in iPSC-CMs
Type: cell-based
Conditions: Homo sapiens; for viability at 0.01 µM / activity at 0.01 µM / viability at 0.1 µM / activity at 0.1 µM / viability at 1 µM / activity at 1 µM / viability at 10 µM / activity at 10 µM / viability at 100 µM / activity at 100 µM: 0.00 µM = 100.00; for viability at 0.1 µM / activity at 0.1 µM: 0.10 µM
Outline: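 This assay measured cytotoxicity and mitochondrial integrity in iPSC cardiomyocytes held in 40μL maintenance medium. After compound exposure, a 2× staining solution with Hoechst 33342 (4μg/mL) and MitoTracker™ Orange (0.4μM) was applied for 15 min at 37°C. Cells were washed, fixed with 3.7% formaldehyde, imaged on DAPI and Cy3 channels, and scored in MetaXpress®.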

[1] = Cardiomyocyte, 1.5 h, read-out: cm.cam.90min
[2] = Cardiomyocyte, 1.5 h, read-out: cm.mii.90min
[3] = Cardiomyocyte, 1.5 h, read-out: cm.mito.90min
[4] = Cardiomyocyte, 1.5 h, read-out: cm.tc.90min
[5] = Cardiomyocyte, 24 h, read-out: cm.cam.24hrs
[6] = Cardiomyocyte, 24 h, read-out: cm.mii.24hrs
[7] = Cardiomyocyte, 24 h, read-out: cm.mito.24hrs
[8] = Cardiomyocyte, 24 h, read-out: cm.tc.24hrs
[9] = iPSC-CM, 1.5 h, iPSC-CM, read-out: cm.cam.90min POD
[10] = iPSC-CM, 1.5 h, iPSC-CM, read-out: cm.mii.90min POD
[11] = iPSC-CM, 1.5 h, iPSC-CM, read-out: cm.mito.90min POD
[12] = iPSC-CM, 1.5 h, iPSC-CM, read-out: cm.tc.90min POD
[13] = iPSC-CM, 24 h, iPSC-CM, read-out: cm.cam.24hrs POD
[14] = iPSC-CM, 24 h, iPSC-CM, read-out: cm.mii.24hrs POD
[15] = iPSC-CM, 24 h, iPSC-CM, read-out: cm.mito.24hrs POD
[16] = iPSC-CM, 24 h, iPSC-CM, read-out: cm.tc.24hrs POD
[17] = Cardiomyocyte, 1.5 h, cardiomyocytes (cm), cam, 90 min, read-out: POD cm.cam.90min
[18] = Cardiomyocyte, 1.5 h, cardiomyocytes (cm), mii, 90 min, read-out: POD cm.mii.90min
[19] = Cardiomyocyte, 1.5 h, cardiomyocytes (cm), mito, 90 min, read-out: POD cm.mito.90min
[20] = Cardiomyocyte, 1.5 h, cardiomyocytes (cm), tc, 90 min, read-out: POD cm.tc.90min
[21] = Cardiomyocyte, 24 h, cardiomyocytes (cm), cam, 24 hrs, read-out: POD cm.cam.24hrs
[22] = Cardiomyocyte, 24 h, cardiomyocytes (cm), mii, 24 hrs, read-out: POD cm.mii.24hrs
[23] = Cardiomyocyte, 24 h, cardiomyocytes (cm), mito, 24 hrs, read-out: POD cm.mito.24hrs
[24] = Cardiomyocyte, 24 h, cardiomyocytes (cm), tc, 24 hrs, read-out: POD cm.tc.24hrs

SMILES: Oc1ccc(O)c(-c2ccc(Cl)cc2)c1 [2',5'-DiOH PCB3]
- viability at 0.01 µM [1]: 104%
- activity at 0.01 µM [2]: 107%
- activity at 0.01 µM [3]: 103%
- viability at 0.01 µM [4]: 104%
- viability at 0.1 µM [1]: 94.2%
- activity at 0.1 µM [2]: 114%
- activity at 0.1 µM [3]: 93.9%
- viability at 0.1 µM [4]: 94.3%
- viability at 1 µM [1]: 100%
- activity at 1 µM [2]: 108%
- activity at 1 µM [3]: 100%
- viability at 1 µM [4]: 100%
- viability at 10 µM [1]: 101%
- activity at 10 µM [2]: 84.5%
- activity at 10 µM [3]: 99.4%
- viability at 10 µM [4]: 101%
- viability at 100 µM [1]: 0%
- activity at 100 µM [2]: 0%
- activity at 100 µM [3]: 0%
- viability at 100 µM [4]: 0%
- viability at 0.01 µM [5]: 84.9%
- activity at 0.01 µM [6]: 104%
- activity at 0.01 µM [7]: 82.4%
- viability at 0.01 µM [8]: 85.7%
- viability at 0.1 µM [5]: 100%
- activity at 0.1 µM [6]: 110%
- activity at 0.1 µM [7]: 101%
- viability at 0.1 µM [8]: 100%
- viability at 1 µM [5]: 97.7%
- activity at 1 µM [6]: 98.1%
- activity at 1 µM [7]: 94.2%
- viability at 1 µM [8]: 97.9%
- viability at 10 µM [5]: 45.5%
- activity at 10 µM [6]: 157%
- activity at 10 µM [7]: 40.2%
- viability at 10 µM [8]: 45.4%
- viability at 100 µM [5]: 0%
- activity at 100 µM [6]: 0%
- activity at 100 µM [7]: 0%
- viability at 100 µM [8]: 0%
- minimal effective concentration [9]: 32.4 µM
- minimal effective concentration [10]: 7.9 µM
- minimal effective concentration [11]: 12.7 µM
- minimal effective concentration [12]: 33.4 µM
- minimal effective concentration [13]: 1.84 µM
- minimal effective concentration [14]: 2.28 µM
- minimal effective concentration [15]: 0.97 µM
- minimal effective concentration [16]: 1.88 µM

SMILES: Oc1ccc(-c2ccc(Cl)cc2)cc1 [4'-OH PCB3]
- viability at 0.01 µM [1]: 98.1%
- activity at 0.01 µM [2]: 97%
- activity at 0.01 µM [3]: 98.1%
- viability at 0.01 µM [4]: 98.1%
- viability at 0.1 µM [1]: 101%
- activity at 0.1 µM [2]: 100%
- activity at 0.1 µM [3]: 101%
- viability at 0.1 µM [4]: 102%
- viability at 1 µM [1]: 100%
- activity at 1 µM [2]: 98.2%
- activity at 1 µM [3]: 100%
- viability at 1 µM [4]: 100%
- viability at 10 µM [1]: 98%
- activity at 10 µM [2]: 98.5%
- activity at 10 µM [3]: 97.9%
- viability at 10 µM [4]: 97.9%
- viability at 100 µM [1]: 0%
- activity at 100 µM [2]: 0%
- activity at 100 µM [3]: 0%
- viability at 100 µM [4]: 0.0231%
- viability at 0.01 µM [5]: 98.2%
- activity at 0.01 µM [6]: 96.5%
- activity at 0.01 µM [7]: 95.9%
- viability at 0.01 µM [8]: 98.1%
- viability at 0.1 µM [5]: 99.2%
- activity at 0.1 µM [6]: 99.8%
- activity at 0.1 µM [7]: 97.4%
- viability at 0.1 µM [8]: 99%
- viability at 1 µM [5]: 104%
- activity at 1 µM [6]: 106%
- activity at 1 µM [7]: 103%
- viability at 1 µM [8]: 105%
- viability at 10 µM [5]: 102%
- activity at 10 µM [6]: 93.5%
- activity at 10 µM [7]: 103%
- viability at 10 µM [8]: 102%
- viability at 100 µM [5]: 0.07%
- activity at 100 µM [6]: 9.32%
- activity at 100 µM [7]: 0.05%
- viability at 100 µM [8]: 0.07%
- minimal effective concentration [9]: 12.4 µM
- minimal effective concentration [10]: 16 µM
- minimal effective concentration [11]: 11.5 µM
- minimal effective concentration [12]: 11.3 µM
- minimal effective concentration [13]: 32.3 µM
- minimal effective concentration [14]: 15.4 µM
- minimal effective concentration [15]: 37.2 µM
- minimal effective concentration [16]: 38.4 µM

SMILES: Clc1cccc(-c2cccc(Cl)c2)c1 [PCB 11, 3,3′-Dichlorobiphenyl]
- minimal effective concentration [17]: 18.6 µM
- minimal effective concentration [18]: 12.4 µM
- minimal effective concentration [19]: 14.2 µM
- minimal effective concentration [20]: 16.7 µM
- minimal effective concentration [21]: 35.2 µM
- minimal effective concentration [22]: 9.6 µM
- minimal effective concentration [23]: 33.1 µM
- minimal effective concentration [24]: 35.1 µM

SMILES: O=S(=O)(O)Oc1cccc(-c2ccc(Cl)cc2)c1 [3'-PCB 3 sulfate]
- minimal effective concentration [17]: 100 µM
- minimal effective concentration [18]: 89.9 µM
- minimal effective concentration [19]: 100 µM
- minimal effective concentration [20]: 100 µM
- minimal effective concentration [21]: 100 µM
- minimal effective concentration [22]: 100 µM
- minimal effective concentration [23]: 100 µM
- minimal effective concentration [24]: 100 µM
